Molecules are shown by their SMILES. Bounds are passed on as bounds.

For experiment [1], the target named is T1, Interstitial collagenase (Homo sapiens, UniProt P03956).
T1 sequence (P03956 whole entry): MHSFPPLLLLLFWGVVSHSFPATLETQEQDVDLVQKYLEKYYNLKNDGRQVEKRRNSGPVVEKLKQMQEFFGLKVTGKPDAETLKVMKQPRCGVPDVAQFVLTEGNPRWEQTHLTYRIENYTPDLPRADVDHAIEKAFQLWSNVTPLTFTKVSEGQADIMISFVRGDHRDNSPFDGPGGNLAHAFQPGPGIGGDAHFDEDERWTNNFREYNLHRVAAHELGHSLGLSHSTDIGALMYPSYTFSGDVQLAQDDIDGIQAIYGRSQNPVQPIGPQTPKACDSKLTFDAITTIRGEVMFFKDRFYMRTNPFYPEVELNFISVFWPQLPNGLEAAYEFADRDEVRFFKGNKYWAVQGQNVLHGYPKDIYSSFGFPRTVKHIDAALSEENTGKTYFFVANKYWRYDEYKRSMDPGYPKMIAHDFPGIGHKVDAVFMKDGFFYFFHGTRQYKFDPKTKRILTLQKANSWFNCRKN
Nature of the experiment: Inhibition of trypsin-activated recombinant human collagenase 1 preincubated with protein followed by addition of DNP-Pro-Cha-Gly-Cys(Me)-His-Ala-Lys(NMA)-NH2 as substrate measured after 20 mins by fluorescence analysis.

Experiment [2] addresses T2, Aggrecanase (Sus scrofa, UniProt F1S1A7+F1SHP0).
T2 sequence (F1S1A7 whole entry): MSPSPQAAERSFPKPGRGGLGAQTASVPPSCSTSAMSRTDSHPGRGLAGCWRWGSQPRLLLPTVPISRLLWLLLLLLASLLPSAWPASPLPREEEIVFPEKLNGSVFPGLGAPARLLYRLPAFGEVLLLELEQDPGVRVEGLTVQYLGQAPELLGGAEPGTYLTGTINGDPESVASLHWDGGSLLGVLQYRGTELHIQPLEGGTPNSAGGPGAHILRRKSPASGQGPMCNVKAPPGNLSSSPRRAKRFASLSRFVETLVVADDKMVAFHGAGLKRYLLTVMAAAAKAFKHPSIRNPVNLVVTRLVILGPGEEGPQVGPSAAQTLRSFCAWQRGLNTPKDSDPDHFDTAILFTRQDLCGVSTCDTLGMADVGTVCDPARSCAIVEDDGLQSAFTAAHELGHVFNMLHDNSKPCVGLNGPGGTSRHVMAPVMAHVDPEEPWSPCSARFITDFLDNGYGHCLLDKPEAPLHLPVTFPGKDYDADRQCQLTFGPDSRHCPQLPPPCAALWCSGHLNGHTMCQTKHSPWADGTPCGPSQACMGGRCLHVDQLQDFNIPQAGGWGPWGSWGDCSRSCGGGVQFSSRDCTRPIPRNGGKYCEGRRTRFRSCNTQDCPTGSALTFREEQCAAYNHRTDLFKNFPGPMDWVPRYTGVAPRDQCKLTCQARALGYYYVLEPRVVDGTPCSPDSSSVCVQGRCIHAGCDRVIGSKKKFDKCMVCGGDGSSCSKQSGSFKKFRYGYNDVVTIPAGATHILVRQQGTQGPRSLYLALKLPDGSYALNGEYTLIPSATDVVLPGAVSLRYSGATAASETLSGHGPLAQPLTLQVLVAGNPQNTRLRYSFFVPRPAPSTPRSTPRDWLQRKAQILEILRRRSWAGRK
T2 sequence (F1SHP0 whole entry): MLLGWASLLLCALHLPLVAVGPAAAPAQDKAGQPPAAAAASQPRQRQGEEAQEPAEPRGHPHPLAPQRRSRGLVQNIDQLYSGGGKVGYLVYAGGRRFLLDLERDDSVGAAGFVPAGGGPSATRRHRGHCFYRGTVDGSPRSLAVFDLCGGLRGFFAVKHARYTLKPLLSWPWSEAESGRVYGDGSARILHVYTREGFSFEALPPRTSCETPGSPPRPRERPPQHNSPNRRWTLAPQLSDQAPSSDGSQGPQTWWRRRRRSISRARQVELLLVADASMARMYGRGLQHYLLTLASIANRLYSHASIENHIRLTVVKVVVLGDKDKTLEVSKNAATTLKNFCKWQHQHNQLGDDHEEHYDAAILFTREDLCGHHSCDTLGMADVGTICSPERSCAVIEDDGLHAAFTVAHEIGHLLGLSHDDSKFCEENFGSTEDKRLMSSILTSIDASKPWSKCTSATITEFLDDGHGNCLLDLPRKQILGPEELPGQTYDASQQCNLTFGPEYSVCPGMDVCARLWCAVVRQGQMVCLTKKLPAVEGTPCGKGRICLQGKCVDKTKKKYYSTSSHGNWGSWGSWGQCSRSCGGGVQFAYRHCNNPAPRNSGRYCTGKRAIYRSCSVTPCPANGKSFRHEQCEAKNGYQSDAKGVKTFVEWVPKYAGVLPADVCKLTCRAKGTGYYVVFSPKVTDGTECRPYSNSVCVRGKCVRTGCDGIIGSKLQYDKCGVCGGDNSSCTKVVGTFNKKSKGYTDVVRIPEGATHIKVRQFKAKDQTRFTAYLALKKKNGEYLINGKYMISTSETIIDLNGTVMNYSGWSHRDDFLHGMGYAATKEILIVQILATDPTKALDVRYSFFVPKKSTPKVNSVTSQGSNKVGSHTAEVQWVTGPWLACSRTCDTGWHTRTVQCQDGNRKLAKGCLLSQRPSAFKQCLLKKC
The experiment can be described thus: Inhibition of aggrecanase in primary porcine chondrocytes assessed as inhibition of 35S-proteoglycan release measured after 9 to 12 hrs by liquid scintillation counting method. It counts as cell-based.

Experiment [3] has as its target Disintegrin and metalloproteinase domain-containing protein 17 (Homo sapiens, UniProt P78536). The experiment can be described thus: Inhibition of TACE in human mononuclear cells assessed as inhibition of LPS-induced TNF-alpha production measured after 4 hrs in presence of LPS by ELISA. The class given is cell-based.
For experiment [4], the target named is Collagenase 3 (Homo sapiens, UniProt P45452). The experiment can be described thus: Inhibition of APMA-activated recombinant human collagenase 3 preincubated with protein followed by addition of DNP-Pro-Cha-Gly-Cys(Me)-His-Ala-Lys(NMA)-NH2 as substrate measured every 5 mins for 1 hr by fluorescence analysis.

Chain of Disintegrin and metalloproteinase domain-containing protein 17 (P78536 whole entry, the tested form may be a part): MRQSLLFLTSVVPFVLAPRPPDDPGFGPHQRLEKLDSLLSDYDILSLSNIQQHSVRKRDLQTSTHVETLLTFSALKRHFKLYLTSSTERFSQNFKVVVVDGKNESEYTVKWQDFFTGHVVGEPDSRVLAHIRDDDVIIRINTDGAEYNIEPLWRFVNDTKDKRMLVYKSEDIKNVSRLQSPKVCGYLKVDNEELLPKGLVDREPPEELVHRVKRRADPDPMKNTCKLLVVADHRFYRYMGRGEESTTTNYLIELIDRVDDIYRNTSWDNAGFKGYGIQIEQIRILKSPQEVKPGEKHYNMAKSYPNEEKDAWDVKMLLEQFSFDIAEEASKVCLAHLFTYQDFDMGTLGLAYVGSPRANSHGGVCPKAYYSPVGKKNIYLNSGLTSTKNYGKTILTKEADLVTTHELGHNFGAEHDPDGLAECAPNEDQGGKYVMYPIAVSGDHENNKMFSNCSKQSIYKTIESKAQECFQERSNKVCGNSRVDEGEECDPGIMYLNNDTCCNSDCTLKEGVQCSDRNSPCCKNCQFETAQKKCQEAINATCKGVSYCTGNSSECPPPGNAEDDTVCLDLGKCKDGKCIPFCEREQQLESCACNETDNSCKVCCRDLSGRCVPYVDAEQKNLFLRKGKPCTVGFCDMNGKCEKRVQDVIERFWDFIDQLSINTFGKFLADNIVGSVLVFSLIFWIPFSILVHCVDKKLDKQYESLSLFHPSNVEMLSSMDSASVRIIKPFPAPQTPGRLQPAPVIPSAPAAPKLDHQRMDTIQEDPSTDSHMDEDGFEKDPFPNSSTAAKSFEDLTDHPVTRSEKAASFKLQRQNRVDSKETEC

One may read the IC50 as the concentration that gives 50% inhibition. Regarding `CCc1ccccc1COc1ccc(S(=O)(=O)N2CCN(C(=O)NC)[C@@H](C)[C@@H]2C(=O)NO)cc1`, the IC50 in experiment [1] is greater than 1000 nM; in experiment [2] it was less than 10 nM; in experiment [3], less than 10000 nM; in experiment [4] it was 20 to 200 nM.
For `C[C@@]1(O)CCCN(S(=O)(=O)c2ccc(OCc3ccccc3F)cc2)[C@H]1C(=O)NO`, the IC50 in experiment [1] lay within 20 to 200 nM; in experiment [2], 10 to 20 nM; in experiment [3], 20000 to 40000 nM.
Consider `Cc1ccccc1COc1ccc(S(=O)(=O)N2CCC[C@@](C)(O)[C@@H]2C(=O)NO)cc1`, for which the IC50 in experiment [1] was 200 to 1000 nM; in experiment [2] it was less than 10 nM; in experiment [3] it was less than 10000 nM; in experiment [4] it was less than 10 nM.
In the case of `CC1(C)C[C@@H](O)CN(S(=O)(=O)c2ccc(OCc3ccc(F)cc3)cc2)[C@H]1C(=O)NO`, the IC50 in experiment [1] is 20 to 200 nM; in experiment [2] it was less than 10 nM; in experiment [3], 10000 to 20000 nM; in experiment [4] it was less than 10 nM.
On to `Cc1ccc(F)cc1COc1ccc(S(=O)(=O)N2CC(=O)N[C@@H](C)[C@@H]2C(=O)NO)cc1`, for which the IC50 was greater than 1000 nM in experiment [1], less than 10 nM in experiment [2], less than 10000 nM in experiment [3] and 10 to 20 nM in experiment [4].
For the molecule `Cc1ccccc1COc1ccc(S(=O)(=O)N2CCC[C@](C)(O)[C@@H]2C(=O)NO)cc1`, the IC50 in experiment [1] is 200 to 1000 nM; in experiment [2], 10 to 20 nM; in experiment [3] it was less than 10000 nM; in experiment [4], less than 10 nM.
With `CNC(=O)N1CCN(S(=O)(=O)c2ccc(OCc3ccc(F)cc3F)cc2)[C@@H](C(=O)NO)[C@@H]1C`, the IC50 is 200 to 1000 nM in experiment [1], 10 to 20 nM in experiment [2], 10000 to 20000 nM in experiment [3] and less than 10 nM in experiment [4].
In the case of `CNC(=O)[C@H](Cc1ccc(OC)cc1)NC(=O)[C@@H](CC(=O)NO)CC(C)C`, the IC50 in experiment [4] was found to be 1 nM.
For `CC1(C)C[C@@H](O)CN(S(=O)(=O)c2ccc(OCc3ccc(Cl)cc3Cl)cc2)[C@H]1C(=O)NO`, the IC50 in experiment [1] is 200 to 1000 nM; in experiment [2], less than 10 nM; in experiment [3], 20000 to 40000 nM; in experiment [4], less than 10 nM.
As to `CC1(C)C[C@@H](O)CN(S(=O)(=O)c2ccc(OCc3ccccc3Br)cc2)[C@H]1C(=O)NO`, the concentration for half-maximal inhibition (IC50) in experiment [1] is 200 to 1000 nM; in experiment [2], 10 to 20 nM; in experiment [3], less than 10000 nM; in experiment [4], less than 10 nM.
With `Cc1cc(F)ccc1COc1ccc(S(=O)(=O)N2CCC[C@@](C)(O)[C@@H]2C(=O)NO)cc1`, the IC50 is less than 10 nM in experiment [2], less than 10000 nM in experiment [3] and less than 10 nM in experiment [4].
In the case of `CC1(C)C[C@@H](O)CN(S(=O)(=O)c2ccc(OCc3ccc(F)cc3Cl)cc2)[C@H]1C(=O)NO`, the IC50 in experiment [1] is 200 to 1000 nM; in experiment [2] it was less than 10 nM; in experiment [3], 10000 to 20000 nM; in experiment [4], less than 10 nM.
For `Cc1ccc(F)cc1COc1ccc(S(=O)(=O)N2CCC[C@@](C)(O)[C@@H]2C(=O)NO)cc1`, the IC50 in experiment [2] was 10 to 20 nM; in experiment [3], less than 10000 nM; in experiment [4], less than 10 nM.
As for `CNC(=O)N1CCN(S(=O)(=O)c2ccc(OCc3cc(F)ccc3C)cc2)[C@@H](C(=O)NO)[C@@H]1C`, the IC50 in experiment [1] was greater than 1000 nM; in experiment [2], less than 10 nM; in experiment [3] it was less than 10000 nM; in experiment [4] it was less than 10 nM.
In the case of `Cc1ccc(Cl)cc1COc1ccc(S(=O)(=O)N2C[C@H](O)CC(C)(C)[C@@H]2C(=O)NO)cc1`, the IC50 in experiment [1] was greater than 1000 nM; in experiment [2] it was 10 to 20 nM; in experiment [3], 10000 to 20000 nM; in experiment [4], 20 to 200 nM.
For the molecule `C[C@@]1(O)CCCN(S(=O)(=O)c2ccc(OCc3ccc(F)cc3Cl)cc2)[C@H]1C(=O)NO`, the IC50 in experiment [1] is 200 to 1000 nM; in experiment [2], less than 10 nM; in experiment [3] it was 10000 to 20000 nM; in experiment [4], less than 10 nM.
With `Cc1c(F)cccc1COc1ccc(S(=O)(=O)N2CCC[C@@](C)(O)[C@@H]2C(=O)NO)cc1`, the IC50 in experiment [1] is greater than 1000 nM; in experiment [2] it was 10 to 20 nM; in experiment [3], less than 10000 nM; in experiment [4], less than 10 nM.
The like results for `Cc1cc(F)ccc1COc1ccc(S(=O)(=O)N2C[C@H](O)CC(C)(C)[C@@H]2C(=O)NO)cc1` were, in that order, 200 to 1000 nM, less than 10 nM, less than 10000 nM and less than 10 nM.
The like results for `Cc1ccccc1COc1ccc(S(=O)(=O)N2CCN(C(=O)CN)[C@@H](C)[C@@H]2C(=O)NO)cc1` were, in that order, greater than 1000 nM, less than 10 nM, less than 10000 nM and 20 to 200 nM.
For `Cc1cc(F)ccc1COc1ccc(S(=O)(=O)N2CC(=O)N[C@@H](C)[C@@H]2C(=O)NO)cc1`, the IC50 in experiment [1] was greater than 1000 nM; in experiment [2], less than 10 nM; in experiment [3], less than 10000 nM; in experiment [4], 10 to 20 nM.
The like results for `Cc1c(F)cccc1COc1ccc(S(=O)(=O)N2C[C@H](O)CC(C)(C)[C@@H]2C(=O)NO)cc1` were, in that order, 200 to 1000 nM, less than 10 nM, less than 10000 nM and less than 10 nM.
For `C[C@@]1(O)CCCN(S(=O)(=O)c2ccc(OCc3ccc(F)cc3F)cc2)[C@H]1C(=O)NO`, in that order: 200 to 1000 nM, 10 to 20 nM, 10000 to 20000 nM and less than 10 nM.
`NS(=O)(=O)c1ccc(CCNC(=O)[C@H](CC2CCCCC2)NC(=O)[C@H](CCCc2ccccc2)CC(=O)NO)cc1`: the IC50 in experiment [3] was found to be 3000 nM.
Regarding `CC1(C)C[C@@H](O)CN(S(=O)(=O)c2ccc(OCc3cc(Cl)ccc3F)cc2)[C@H]1C(=O)NO`, the IC50 in experiment [1] is 200 to 1000 nM; in experiment [2], 10 to 20 nM; in experiment [3] it was 10000 to 20000 nM; in experiment [4], less than 10 nM.
Regarding `C[C@@]1(O)CCCN(S(=O)(=O)c2ccc(OCc3ccccc3Cl)cc2)[C@H]1C(=O)NO`, the half-inhibitory concentration (IC50) was less than 10 nM in experiment [2], less than 10000 nM in experiment [3] and less than 10 nM in experiment [4].
`C[C@@]1(O)CCCN(S(=O)(=O)c2ccc(OCc3ccc(Cl)cc3Cl)cc2)[C@H]1C(=O)NO`: the IC50 in experiment [1] was 200 to 1000 nM; in experiment [2], less than 10 nM; in experiment [3] it was 10000 to 20000 nM; in experiment [4], less than 10 nM.

The record behind these values is ChEMBL document CHEMBL3880381, “Selective inhibitors of aggrecanase in osteoarthritis treatment” (2001).
